Results from patent publication US20250275953A1, “VODOBATINIB FOR REDUCING PROGRESSION OF PARKINSON'S DISEASE” (Sun Pharma Advanced Research Company Ltd., priority 2022, published 2025).
“Also recorded” adds a separate entry of the source.

Experiment: Safety and tolerability, healthy volunteers
Format: in vivo, human
Settings: for number of treatment-related TEAEs: four subjects
Method: The subjects were further assessed for safety. Accordingly, hematology, chemistry, urinalysis testing and vital signs examination (seated systolic [SBP] and diastolic blood pressure [DBP], pulse, respiration rate, and temperature) were performed at screening, check-in and at the exit visit prior to discharge from the study. Seated vital signs were checked after 1 h, 4 h, and 12 h of the first dose on Day 1. 12-lead ECGs were recorded on Day 1 and Day 7 in triplicate 0.75 h, 0.5 h and 0.25 h prior to the dose and after 0.5 h, 1 h, 2 h, 3 h, 4 h, 8 h, 12 h, and 24 h of the dose with subjects in supine position. Lumbar catheter was placed on day 7 and the vital signs were checked after 1 h, 4 h, and 12 h of the dose. Vital signs were examined within 15 minutes prior to the collection of samples for PK studies.
All adverse event (AE)s were captured and documented throughout the study from the time of ICF signing to 7 days after the last dose of study medication or early termination.
The AEs were coded according to MedDRA® and grouped by Preferred Terms (PT) and System Organ Class (SOC). All AEs were classified and graded according to CTCAE Version 4.03 or later. Incidence (n) and percentage (%) was reported for coded TEAEs by cohort for the SAF Population. Subjects with more than one of the same PTs within an SOC were counted only once.
Categorical ECG analysis included the number and percentage of individuals with abnormal ECG findings and those with: absolute QTcF values >450 milliseconds, absolute QTcF values >480 milliseconds, absolute QTcF values >500 milliseconds, change from baseline >30 msec, and change from baseline >60 msec. No subject reported clinically significant abnormalities. […] No AEs related to ECG parameters were reported in any group during the study.
Forty-one healthy adult male volunteers aged 18 to 45 with body mass indexes (BMI)≥18 to ≤30 Kg/m^2 and total body weight >50 kg (110 lb) were screened in order to enroll 19 subjects with an average age of 34.2 years (range 21.5-45.6 years) into this study Six participants were randomly assigned to the 48 and 192 mg cohorts, and seven participants were assigned to the 384 mg cohort. After an overnight fast, participants received once daily doses of vodobatinib as capsules for 7 days. Serial PK blood samples to measure vodobatinib plasma concentrations were collected at pre-dose and at 0.25, 0.5, 1, 1.5, 2, 2.5, 3, 4, 6, 8, 12, 16 and 24 h post-dose after the first dose on Day 1 and the last dose on day 7. Additional PK samples prior to the morning doses were taken on Days 3-6. On the morning of Day 7, prior to dosing, an indwelling intrathecal catheter was inserted in the lumbar region (L3-L5). Serial CSF samples were collected through the catheter connected via peristaltic pump to a fraction collector. At each designated CSF collection time point, 8 mL of CSF was collected at a flow rate of 0.5 mL/min over a 16-min period at pre-dose, and 0.5, 1.0, 1.5, 2, 2.5, 3, 4, 6, 8, 12 and 24 h post-dose. The first 2 mL of CSF was discarded, and the remaining 6 mL was used for the vodobatinib assay. The occurrence of treatment-emergent adverse events (TEAEs) and serious AEs (SAEs) reported through the completion of study were collected. Clinical laboratory parameters, vital signs and physical examination data and electrocardiogram (ECG) were collected and evaluated relative to baseline values.

[1] = Total (N = 19), listed as vodobatinib
[2] = all cohorts, listed as vodobatinib

Compound: Cc1ccc(C(=O)NNC(=O)c2c(C)cccc2Cl)cc1C#Cc1cnc2ccccc2c1 [N′-(2-chloro-6-methylbenzoyl)-4-methyl-3-[2-(3-quinolyl)ethynyl]-benzohydrazide]
- IMP Related TEAEs: Abdominal Distension, N (%) (48 mg (N = 6)): 0
- IMP Related TEAEs: Gastrointestinal Disorders, N (%) (48 mg (N = 6)): 0
- IMP Related TEAEs: General Disorders and Administration Site Conditions, N (%) (48 mg (N = 6)): 0
- IMP Related TEAEs: Headache, N (%) (48 mg (N = 6)): 1 (16.7)
- IMP Related TEAEs: Musculoskeletal and Connective Tissue Disorders, N (%) (48 mg (N = 6)): 0
- IMP Related TEAEs: Myalgia, N (%) (48 mg (N = 6)): 0
- IMP Related TEAEs: Nausea, N (%) (48 mg (N = 6)): 0
- IMP Related TEAEs: Nervous System Disorders, N (%) (48 mg (N = 6)): 1 (16.7)
- IMP Related TEAEs: Pain, N (%) (48 mg (N = 6)): 0
- IMP Related TEAEs: Subjects with at least one AE, N (%) (48 mg (N = 6)): 1 (16.7)
- IMP Related TEAEs: Subjects with more than one AE, N (%) (48 mg (N = 6)): 0
- Number of subjects with at least one TEAE (48 mg (N = 6)): 4
- Study Drug Related TEAEs, subjects (48 mg (N = 6)): 1
- Study Drug Withdrawn, subjects (48 mg (N = 6)): 0
- TEAEs Certainly, subjects (48 mg (N = 6)): 0
- TEAEs Mild, subjects (48 mg (N = 6)): 4
- TEAEs Moderate, subjects (48 mg (N = 6)): 1
- TEAEs None (row before Study Drug Withdrawn), subjects (48 mg (N = 6)): 4
- TEAEs Possibly, subjects (48 mg (N = 6)): 1
- TEAEs Probably, subjects (48 mg (N = 6)): 0
- TEAEs Unlikely, subjects (48 mg (N = 6)): 0
- TEAEs Unrelated, subjects (48 mg (N = 6)): 4
- number of TEAEs (48 mg (N = 6)): 9
- IMP Related TEAEs: Abdominal Distension, N (%) (192 mg (N = 6)): 0
- IMP Related TEAEs: Gastrointestinal Disorders, N (%) (192 mg (N = 6)): 1 (16.7)
- IMP Related TEAEs: General Disorders and Administration Site Conditions, N (%) (192 mg (N = 6)): 0
- IMP Related TEAEs: Headache, N (%) (192 mg (N = 6)): 1 (16.7)
- IMP Related TEAEs: Musculoskeletal and Connective Tissue Disorders, N (%) (192 mg (N = 6)): 1 (16.7)
- IMP Related TEAEs: Myalgia, N (%) (192 mg (N = 6)): 1 (16.7)
- IMP Related TEAEs: Nausea, N (%) (192 mg (N = 6)): 1 (16.7)
- IMP Related TEAEs: Nervous System Disorders, N (%) (192 mg (N = 6)): 1 (16.7)
- IMP Related TEAEs: Pain, N (%) (192 mg (N = 6)): 0
- IMP Related TEAEs: Subjects with at least one AE, N (%) (192 mg (N = 6)): 1 (16.7)
- IMP Related TEAEs: Subjects with more than one AE, N (%) (192 mg (N = 6)): 1 (16.7)
- Number of subjects with at least one TEAE (192 mg (N = 6)): 4
- Study Drug Related TEAEs, subjects (192 mg (N = 6)): 1
- Study Drug Withdrawn, subjects (192 mg (N = 6)): 0
- TEAEs Certainly, subjects (192 mg (N = 6)): 0
- TEAEs Mild, subjects (192 mg (N = 6)): 4
- TEAEs Moderate, subjects (192 mg (N = 6)): 2
- TEAEs None (row before Study Drug Withdrawn), subjects (192 mg (N = 6)): 4
- TEAEs Possibly, subjects (192 mg (N = 6)): 1
- TEAEs Probably, subjects (192 mg (N = 6)): 0
- TEAEs Unlikely, subjects (192 mg (N = 6)): 1
- TEAEs Unrelated, subjects (192 mg (N = 6)): 3
- number of TEAEs (192 mg (N = 6)): 10
- IMP Related TEAEs: Abdominal Distension, N (%) (384 mg (N = 7)): 1 (14.3)
- IMP Related TEAEs: Gastrointestinal Disorders, N (%) (384 mg (N = 7)): 1 (14.3)
- IMP Related TEAEs: General Disorders and Administration Site Conditions, N (%) (384 mg (N = 7)): 1 (14.3)
- IMP Related TEAEs: Headache, N (%) (384 mg (N = 7)): 1 (14.3)
- IMP Related TEAEs: Musculoskeletal and Connective Tissue Disorders, N (%) (384 mg (N = 7)): 0
- IMP Related TEAEs: Myalgia, N (%) (384 mg (N = 7)): 0
- IMP Related TEAEs: Nausea, N (%) (384 mg (N = 7)): 1 (14.3)
- IMP Related TEAEs: Nervous System Disorders, N (%) (384 mg (N = 7)): 1 (14.3)
- IMP Related TEAEs: Pain, N (%) (384 mg (N = 7)): 1 (14.3)
- IMP Related TEAEs: Subjects with at least one AE, N (%) (384 mg (N = 7)): 2 (28.6)
- IMP Related TEAEs: Subjects with more than one AE, N (%) (384 mg (N = 7)): 1 (14.3)
- Number of subjects with at least one TEAE (384 mg (N = 7)): 3
- Study Drug Related TEAEs, subjects (384 mg (N = 7)): 2
- Study Drug Withdrawn, subjects (384 mg (N = 7)): 0
- TEAEs Certainly, subjects (384 mg (N = 7)): 0
- TEAEs Mild, subjects (384 mg (N = 7)): 3
- TEAEs Moderate, subjects (384 mg (N = 7)): 1
- TEAEs None (row before Study Drug Withdrawn), subjects (384 mg (N = 7)): 3
- TEAEs Possibly, subjects (384 mg (N = 7)): 2
- TEAEs Probably, subjects (384 mg (N = 7)): 1
- TEAEs Unlikely, subjects (384 mg (N = 7)): 3
- TEAEs Unrelated, subjects (384 mg (N = 7)): 0
- number of TEAEs (384 mg (N = 7)): 9
- subjects with absolute QTcF >450 ms (48, 192, 384 mg): None of the subjects
- Study Drug Withdrawn, subjects (Total (N = 19)): 0
- TEAEs Certainly, subjects (Total (N = 19)): 0
- TEAEs Mild, subjects (Total (N = 19)): 11
- TEAEs Moderate, subjects (Total (N = 19)): 4
- TEAEs None (row before Study Drug Withdrawn), subjects (Total (N = 19)): 11
- TEAEs Possibly, subjects (Total (N = 19)): 4
- TEAEs Probably, subjects (Total (N = 19)): 1
- TEAEs Unlikely, subjects (Total (N = 19)): 4
- TEAEs Unrelated, subjects (Total (N = 19)): 7
- number of TEAEs (Total (N = 19)): 28
- Number of subjects with at least one TEAE [1]: Eleven
- Study Drug Related TEAEs, subjects [1]: Four
- SAEs (all cohorts): No subject experienced an SAE; also recorded: no SAEs
- TEAE abdominal distention (all cohorts): 10.5%
- TEAE back pain (all cohorts): 10.5%
- TEAE headache and nausea (all cohorts): 15.8%
- TEAE post lumbar puncture syndrome (all cohorts): 42.1%
- findings in clinical laboratory results, vital signs, ECGs, physical examinations (all cohorts): no clinically relevant or significant findings
- subjects with TEAEs unlikely related to study treatment (all cohorts): 21%
- subjects with TEAEs unrelated to study treatment (all cohorts): 37%
- subjects with mild TEAEs (all cohorts): 58%
- subjects with moderate TEAEs (all cohorts): 21%
- subjects reporting TEAEs (all cohorts (N = 19)): 58%
- number of treatment-related TEAEs (all cohorts): 7
- number of treatment-related TEAEs [2]: seven
- SAEs [2]: no SAEs
